Patent publication US20040097463A1, “Use of asiatic acid or asiaticoside for treatment of cancer” (priority 2000, published 2004)
Read-outs that look alike come from different tables or passages of the source.

Experiments:
[1] = MTT dye reduction cytotoxicity test, new born foreskin fibroblast cells; assay type: cell-based, human; conditions: human
Procedure: (§1) Taxol is a commercially available chemotherapeutic predominantly used in the treatment of breast cancer, lung cancer and ovarian cancer. The experiments were performed on human foreskin fibroblast cells as well as established tumor cell lines. The percentage cytotoxicity was measured by the MTT dye reduction test, which requires the NADPH dehydrogenase enzyme of the mitochondria in live cells (1).

[2] = test system: Squamous carcinoma cells of SCC4; test: MTT dye reduction cytotoxicity test, SCC4; assay type: cell-based; conditions: Homo sapiens
Procedure: as §1

[3] = test system: Squamous carcinoma cells of SCC15; test: MTT dye reduction cytotoxicity test, SCC15; assay type: cell-based; conditions: for cytotoxicity at 2.5 µg/mL / cytotoxicity at 5 µg/mL / cytotoxicity at 10 µg/mL / cytotoxicity at 20 µg/mL / cytotoxicity at 25 µg/mL: Homo sapiens
Procedure: as §1

[4] = test system: SK-BR3 breast cancer cell line; test: MTT dye reduction cytotoxicity test, SK-BR3; assay type: cell-based; conditions: Homo sapiens
Procedure: as §1

[5] = MTT dye reduction cytotoxicity test, OKF6; assay type: cell-based; conditions: human, OKF6 cells (SV40-transformed normal epithelial cell line)
[6] = test system: New Born Foreskin Fibroblast cells; test: MTT dye reduction cytotoxicity test, new born foreskin fibroblast cells; assay type: cell-based, human
Procedure: as §1

[7] = MTT dye reduction cytotoxicity test, OKF6; assay type: cell-based; conditions: human
Procedure: as §1

HeLa cells = test: Apoptosis by DAPI staining of the nuclei in HeLa cells; assay type: cell-based; conditions: cytotoxic concentrations
Procedure: HeLa cells were treated with asiatic acid at cytotoxic concentrations and apoptosis of the cells was measured by DAPI staining of the nuclei (2).

CC(=O)O[C@H]1C(=O)[C@@]2(C)[C@H]([C@H](OC(=O)c3ccccc3)[C@]3(O)C[C@H](OC(=O)[C@H](O)[C@@H](NC(=O)c4ccccc4)c4ccccc4)C(C)=C1C3(C)C)[C@]1(OC(C)=O)CO[C@@H]1C[C@@H]2O [Taxol, reference compound]
cytotoxicity at 0.8 μg/ml ([1]; New Born Foreskin Fibroblast cells, 0.8 μg/ml, read-out: % cytotox): 40% | cytotoxicity at 6.25 μg/ml ([1]; New Born Foreskin Fibroblast cells, 6.25 μg/ml, read-out: % cytotox): 40% | cytotoxicity at 12.5 μg/ml ([1]; New Born Foreskin Fibroblast cells, 12.5 μg/ml, read-out: % cytotox): 50% | cytotoxicity at 25 μg/ml ([1]; New Born Foreskin Fibroblast cells, 25 μg/ml, read-out: % cytotox): 55% | cytotoxicity at 5 µg/mL ([2]; SCC-4, SCC4, 5 μg/ml, read-out: % cytotox): 52% | cytotoxicity at 10 µg/mL ([2]; SCC-4, SCC4, 10 μg/ml, read-out: % cytotox): 60% | cytotoxicity at 20 µg/mL ([2]; SCC-4, SCC4, 20 μg/ml, read-out: % cytotox): 60% | cytotoxicity at 40 µg/mL ([2]; SCC-4, SCC4, 40 μg/ml, read-out: % cytotox): 60% | cytotoxicity at 50 µg/mL ([2]; SCC-4, SCC4, 50 μg/ml, read-out: % cytotox): 40% | cytotoxicity at 2.5 µg/mL ([3]; SCC-15, SCC15, 2.5 μg/ml, read-out: % cytotox): 3% | cytotoxicity at 5 µg/mL ([3]; SCC-15, SCC15, 5 μg/ml, read-out: % cytotox): 0% | cytotoxicity at 10 µg/mL ([3]; SCC-15, SCC15, 10 μg/ml, read-out: % cytotox): 0% | cytotoxicity at 20 µg/mL ([3]; SCC-15, SCC15, 20 μg/ml, read-out: % cytotox): 8% | cytotoxicity at 25 µg/mL ([3]; SCC-15, SCC15, 25 μg/ml, read-out: % cytotox): 23% | cytotoxicity at 0.8 µg/mL ([4]; SK-BR-3, SK-BR3, 0.8 μg/ml, read-out: % cytotox): 40% | cytotoxicity at 6.2 µg/mL ([4]; SK-BR-3, SK-BR3, 6.2 μg/ml, read-out: % cytotox): 50% | cytotoxicity at 12.5 µg/mL ([4]; SK-BR-3, SK-BR3, 12.5 μg/ml, read-out: % cytotox): 40% | cytotoxicity at 25 µg/mL ([4]; SK-BR-3, SK-BR3, 25 μg/ml, read-out: % cytotox): 50% | cytotoxicity at 2.5 μg/ml ([5]; OKF6, 2.5 μg/ml): 26% | cytotoxicity at 5 μg/ml ([5]; OKF6, 5 μg/ml): 41% | cytotoxicity at 10 μg/ml ([5]; OKF6, 10 μg/ml): 54% | cytotoxicity at 20 μg/ml ([5]; OKF6, 20 μg/ml): 48% | cytotoxicity at 25 μg/ml ([5]; OKF6, 25 μg/ml): 75%

C[C@H]1[C@H](C)CC[C@]2(C(=O)O)CC[C@]3(C)C(=CC[C@@H]4[C@@]5(C)C[C@@H](O)[C@H](O)[C@@](C)(CO)[C@@H]5CC[C@]43C)[C@H]12 [Asiatic Acid, asiatic acid]
cytotoxic effect on human foreskin fibroblast cells in culture [6]: dose-dependent | cytotoxicity at 0.8 μg/ml [1]: 30% | cytotoxicity at 6.25 μg/ml [1]: 30% | cytotoxicity at 12.5 μg/ml [1]: 80% | cytotoxicity at 25 μg/ml [1]: 84% | cytotoxicity at 2.5 μg/ml [7]: 5% | cytotoxicity at 5 μg/ml [7]: 23% | cytotoxicity at 10 μg/ml [7]: 88% | cytotoxicity at 20 μg/ml [7]: 92% | cytotoxicity at 25 μg/ml [7]: 92% | cytotoxicity at 5 µg/mL ([2]; SCC-4, read-out: % cytotox): 75% | cytotoxicity at 10 µg/mL ([2]; SCC-4, read-out: % cytotox): 75% | cytotoxicity at 20 µg/mL ([2]; SCC-4, read-out: % cytotox): 80% | cytotoxicity at 40 µg/mL ([2]; SCC-4, read-out: % cytotox): 70% | cytotoxicity at 50 µg/mL ([2]; SCC-4, read-out: % cytotox): 75% | cytotoxicity to squamous carcinoma cells compared with solid tumor cell line [3]: more potent cytotoxicity | cytotoxicity at 2.5 µg/mL ([3]; SCC-15, read-out: % cytotox): 16% | cytotoxicity at 5 µg/mL ([3]; SCC-15, read-out: % cytotox): 20% | cytotoxicity at 10 µg/mL ([3]; SCC-15, read-out: % cytotox): 88% | cytotoxicity at 20 µg/mL ([3]; SCC-15, read-out: % cytotox): 86% | cytotoxicity at 25 µg/mL ([3]; SCC-15, read-out: % cytotox): 90% | apoptosis of the cells measured by DAPI staining of the nuclei (HeLa cells): inducing apoptotic cell death | cytotoxicity at 0.8 µg/mL ([4]; SK-BR-3, read-out: % cytotox): 0% | cytotoxicity at 6.2 µg/mL ([4]; SK-BR-3, read-out: % cytotox): 0% | cytotoxicity at 12.5 µg/mL ([4]; SK-BR-3, read-out: % cytotox): 23% | cytotoxicity at 25 µg/mL ([4]; SK-BR-3, read-out: % cytotox): 80%
